For series [1], the system named is plasma protein. The experiment in a line: Plasma protein binding, human. It counts as in vitro ADME. As to conditions: for fraction unbound: plasma, read-out: Plasma Protein Binding % bound.
In series [2] the test system is plasma protein. The experiment in a line: Plasma protein binding, rat. As to conditions: for fraction unbound: plasma, read-out: Plasma Protein Binding % bound. Format: in vitro ADME.
The nature of series [3]: Microsomal stability, human. It counts as in vitro ADME.
For series [4], the target named is T1, human D2R/β-arrestin (Homo sapiens (Human), UniProt P14416). The experiment in a line: β-Arrestin agonist assay (PathHunter). It counts as cell-based. Conditions: CHO-K1 cell line expressing human D2R/β-arrestin. In outline: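 After compound incubation, detection reagent (Buffer:Emerald II:Galactor-Star, 19:5:1) added and luminescence or fluorescence read.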

Series [5] is described as follows: Plasma stability, mouse.
Series [6] has as its target D2 (Homo sapiens (Human), UniProt P14416). The experiment in a line: D2 radioligand binding assay.
For series [7], the target named is T1, human D2R/β-arrestin. The experiment in a line: cell-based. Conditions: cAMP Antagonist, CHO-K1 cell line expressing human D2R/β-arrestin; quinpirole used as agonist.
The target of series [8] is T1, human D2R/β-arrestin. The experiment in a line: Gi/cAMP agonist assay (Lance Ultra cAMP, Forskolin). It counts as cell-based. Conditions: CHO-K1 cell line expressing human D2R/β-arrestin. In outline:
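Cells were plated and incubated before compounds were pin-transferred and incubated for 10 min at 37 °C. Forskolin was then added to stimulate cAMP. cAMP was detected by Lance Ultra TR-FRET using Eu-cAMP tracer and ULight-anti-cAMP antibody.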

A short description of series [9]: Microsomal stability, mouse.
Series [10] addresses T1, human D2R/β-arrestin. The experiment in a line: cell-based. Conditions: β-arrestin Antagonist, CHO-K1 cell line expressing human D2R/β-arrestin; quinpirole used as agonist.
Series [11] in a line: Solubility in PBS. Format: physicochemical.
Series [12] in a line: Microsomal stability, rat. Format: in vitro ADME.
Series [13] can be described thus: Plasma stability, rat. It counts as in vitro ADME.
In series [14] the test system is plasma protein. The experiment in a line: Plasma protein binding, mouse. As to conditions: for fraction unbound: plasma, read-out: Plasma Protein Binding % bound. Format: in vitro ADME.
Series [15] in a line: Plasma stability, human. It counts as in vitro ADME.
Series [16] relates to Caco2. The experiment in a line: Caco2 permeability. Format: in vitro ADME. Also noted: unit not given beside the values. Conditions: for Caco2 A-B: A-B direction; for Caco2 B-A: B-A direction.
For series [17], the target named is T1, human D2R/β-arrestin. As to conditions: read-out: β-arrestin Antagonist.
The target of series [18] is T1, human D2R/β-arrestin. As to conditions: read-out: cAMP Antagonist.

≈ marks a conversion by molar mass, not a printed value. Like-named read-outs stand apart in the source and are kept apart here.

T1 sequence (P14416 whole entry): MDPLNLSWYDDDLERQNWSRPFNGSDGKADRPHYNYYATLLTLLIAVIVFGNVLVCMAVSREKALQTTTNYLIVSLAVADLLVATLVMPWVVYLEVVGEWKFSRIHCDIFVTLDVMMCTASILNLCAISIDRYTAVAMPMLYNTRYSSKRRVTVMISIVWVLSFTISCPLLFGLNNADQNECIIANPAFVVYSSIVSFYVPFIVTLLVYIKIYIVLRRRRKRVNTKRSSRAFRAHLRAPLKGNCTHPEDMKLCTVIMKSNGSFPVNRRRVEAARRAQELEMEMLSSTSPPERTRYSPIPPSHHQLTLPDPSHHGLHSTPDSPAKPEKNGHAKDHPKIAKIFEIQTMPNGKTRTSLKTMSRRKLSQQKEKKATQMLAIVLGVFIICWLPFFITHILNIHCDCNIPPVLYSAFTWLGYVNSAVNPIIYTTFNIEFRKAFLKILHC
Sequence of D2 (P14416 whole entry): as above

Regarding `O=C(NC(c1ccc(Cl)cc1)c1ccccn1)C1CCN(CCn2ccc(=O)cc2)CC1` (stereo not shown) [Compound 11], the fraction unbound was 0.485 in series [1], 0.211 in series [2] and 0.391 in series [14]. Further, the “Microsomal Stability: % remaining after 60 minutes” value (“Microsomal Stability: % remaining” for short) was 95% in series [3], 100% in series [9] and 100% in [12]. Moreover, the EC50 in series [4] and in series [8] was above 30 µM in each case. Besides, the “Plasma Stability: % remaining after 5 hours” value (“Plasma Stability: % remaining” below) in series [5] was 89.5%; in [13], 100%; in [15] it was 98.2%. In series [6], this compound yielded a Ki of 10 to 30 µM. Besides, the results for the IC50 in series [7] and in [10] were 10 to 30 µM and above 30 µM, respectively. In addition, the solubility in [11] (aqueous buffer) was above 500 µM.

As to `O=C(NC(c1ccc(Cl)cc1)c1ccccn1)C1CCN(CCOc2ccc3cccnc3c2)CC1` (stereo not shown) [Compound 16], the fraction unbound in series [1] stood at 0.01; in series [2], 0.021; in series [14], 0.023. In addition, the “Microsomal Stability: % remaining” value was determined as 34% in series [3], 45% in series [9] and 75% in series [12]. Also, the figures for the EC50 in [4] and in series [8] were 1 to 10 µM and below 0.1 µM, respectively. For the same compound, the “Plasma Stability: % remaining” value in series [5] amounted to 94%; in [13], 97%; in [15], 98%. In [6], this compound gave a Ki of 10 to 30 µM. Also, the IC50 in [7] and in series [10] was above 30 µM in each case. Also, in [11] (aqueous buffer), the concentration in solution (solubility) was 14 µM (≈ 7.01 µg/mL).

`O=C(NC(c1ccc(F)cc1)c1ccccn1)C1CCN(CCOc2ccccc2)CC1` (stereo not shown) [Compound 25]: the figures for the fraction unbound in series [1], in series [2] and in series [14] were 0.08, 0.03 and 0.047, respectively. The “Microsomal Stability: % remaining” value turned out to be 93% in series [3], 76% in series [9] and 100% in series [12]. In addition, the EC50 is above 30 µM in [4] and 10 to 30 µM in series [8]. Also, the figures for the “Plasma Stability: % remaining” value in series [5], in series [13] and in series [15] were 97%, 94.5% and 100%, respectively. This compound yielded a Ki in series [6] of 1 to 10 µM. Moreover, the IC50 in series [7] was in the range of 10 to 30 µM; in [10], 1 to 10 µM. The solubility in series [11] (aqueous buffer) was 452 µM (≈ 196 µg/mL). Moreover, the “Caco2 A-B” value in [16] amounted to 33.7. The “Caco2 B-A” value in series [16] worked out at 50.5.

Consider `O=C(NC(c1ccccn1)c1ccccc1F)C1CCN(CCOc2ccccc2)CC1` (stereo not shown) [Compound 28], for which the IC50 was 1 to 10 µM in series [17] and above 30 µM in series [18]. The results for the “Plasma Protein Binding % bound” value in series [1], in series [2] and in series [14] were 75.3%, 76.7% and 72.2%, respectively. Also, the “Microsomal Stability: % remaining” value in series [3] was found to be 87%; in [9], 52%; in series [12] it was 78%. In addition, the values for the EC50 in series [4] and in [8] were above 30 µM and 0.1 to 1 µM, respectively. For the same compound, the “Plasma Stability: % remaining” value is listed as 95% in [5], 99% in series [13] and 100% in series [15]. Further, in [11], the solubility was 434 µM (≈ 188 µg/mL).

For the compound `O=C(NC(c1ccc(Cl)cc1)c1ccccc1F)C1CCN(CCOc2ccccc2)CC1` (stereo not shown) [Compound 40, N((4-chlorophenyl)(2-fluorophenyl)methyl)-1-(2-phenoxyethyl) piperidine-4-carboxamide], the fraction unbound in series [1] was 0.011; in [2], 0.023; in series [14], 0.01. The “Microsomal Stability: % remaining” value was 45% in series [3], 50% in series [9] and 57% in series [12]. Further, the EC50 in [4] and in series [8] was above 30 µM throughout. In addition, the “Plasma Stability: % remaining” value is given as 100% in series [5], 90% in series [13] and 100% in [15]. Besides, in [6], the Ki is 1 to 10 µM. Besides, the IC50 in series [7] and in series [10] was 0.1 to 1 µM in each case. For the same compound, the solubility in series [11] (aqueous buffer) came to 0.4 µM (≈ 0.187 µg/mL). The “Caco2 A-B” value in [16] stood at 4.4. In series [16], the “Caco2 B-A” value turned out to be 1.9.

`O=C(NC(c1ccc(F)cc1)c1ccc(Cl)cc1)C1CCN(CCOc2ccccc2)CC1` (stereo not shown) [Compound 42]: the figures for the fraction unbound in series [1], in series [2] and in [14] were 0.007, 0.014 and 0.007, respectively. Besides, the “Microsomal Stability: % remaining” value in [3] is on record as 40%; in series [9], 59%; in series [12], 70%. For the same compound, the EC50 in series [4] was above 30 µM; in series [8], 0.1 to 1 µM. Besides, the results for the “Plasma Stability: % remaining” value in series [5], in [13] and in series [15] were 100%, 93% and 98%, respectively. Also, the Ki in series [6] is 0.1 to 1 µM. Also, the IC50 in series [7] and in series [10] was 0.1 to 1 µM throughout. The compound also had a solubility in series [11] (aqueous buffer) below 0.1 µM.

With `O=C(NC(c1ccc(F)cc1)c1ccccn1)C1CCN(CCOc2ccccc2C(F)(F)F)CC1` (stereo not shown) [Compound 52], the fraction unbound in series [1] was 0.009; in series [2], 0.021; in [14], 0.009. For the same compound, the “Microsomal Stability: % remaining” value in series [3] is reported as 46%; in series [9], 7%; in series [12], 7%. Further, the EC50 in series [4] and in series [8] was above 30 µM throughout. Also, the results for the “Plasma Stability: % remaining” value in [5], in series [13] and in series [15] were 89%, 55% and 84%, respectively. Further, the IC50 in series [7] and in series [10] was below 0.1 µM in each case. Further, the concentration in solution in series [11] (aqueous buffer) (solubility) was 27 µM (≈ 13.5 µg/mL). Besides, the “Caco2 A-B” value in [16] worked out at 12.5. The “Caco2 B-A” value in series [16] stood at 9.0.

Regarding `O=C(NC(c1ccc(F)cc1)c1ccccn1)C1CCN(CCOc2ccccc2Cl)CC1` (stereo not shown) [Compound 53, 1-(2-(2-chlorophenoxy)ethyl)-N-((4-fluorophenyl)(pyridin-2-yl)methyl) piperidine-4-carboxamide], the fraction unbound in series [1] turned out to be 0.21; in series [2], 0.086; in [14] it was 0.021. The “Microsomal Stability: % remaining” value is listed as 42% in series [3], 3% in series [9] and 16% in series [12]. Further, the EC50 in [4] and in series [8] was above 30 µM in each case. In addition, the entries for the “Plasma Stability: % remaining” value in series [5], in [13] and in series [15] were 96%, 78% and 100%, respectively. In series [6], this compound yielded a Ki of 0.1 to 1 µM. For the same compound, the IC50 in [7] and in [10] was below 0.1 µM throughout. Moreover, the solubility in [11] (aqueous buffer) is 149 µM (≈ 69.7 µg/mL). Also, in series [16], the “Caco2 A-B” value is listed as 27.4. The “Caco2 B-A” value in series [16] was found to be 23.9.

Consider `O=C(NC(c1ccc(F)cc1)c1ccccn1)C1CCN(CCOc2ccccc2F)CC1` (stereo not shown) [Compound 54, 1-(2-(2-fluorophenoxy)ethyl)-N-((4-fluorophenyl)(pyridin-2-yl)methyl) piperidine-4-carboxamide], for which the values for the fraction unbound in series [1], in [2] and in series [14] were 0.042, 0.027 and 0.039, respectively. In addition, the entries for the “Microsomal Stability: % remaining” value in [3], in series [9] and in series [12] were 70%, 29% and 66%, respectively. Besides, the concentration giving a half-maximal response (EC50) in series [4] and in series [8] was above 30 µM in each case. The “Plasma Stability: % remaining” value in series [5] worked out at 100%; in series [13] it was 78%; in [15] it was 96%. The IC50 in series [7] and in series [10] was 0.1 to 1 µM in each case. Besides, the solubility in [11] (aqueous buffer) is above 500 µM. The “Caco2 A-B” value in [16] was 28.4. Moreover, the “Caco2 B-A” value in series [16] came to 39.3.

Source of the values: US10752588B2 (The Broad Institute, Inc., priority 2014, dated 2020).
